Values quoted from earlier work as cited in EP0277754A1, “Method involving propylene amine oxime complexes” (AMERSHAM INTERNATIONAL plc, priority 1987, dated 1988).

For `CC(=NO)C(C)(C)NCCCNC(C)(C)C(C)=NO` [PnAO], the “retention in human brain” value is listed as “retained only to a small extent”.
